Source: US20240174680A1, “CDK2 INHIBITORS AND METHODS OF USING THE SAME” (Cedilla Therapeutics, Inc., priority 2021, published 2024)

Molecular target: CDK2/Cyclin E1 (Homo sapiens, UniProt P24941)
Test: CDK2/Cyclin E1 Caliper LabChip EZ Reader mobility shift assay
Format: biochemical
Parameters: purchased Eurofins 14-475
Details: read-out: Caliper Assay (CDK2/CCNE1): IC50
Description: Inhibition of CDK2/Cyclin E1 activity in the presence of compounds of the present disclosure was evaluated using a Caliper LabChip® EZ Reader mobility shift assay. In the assay, CDK2/Cyclin E1 (Eurofins, 14-475) catalyzed the phosphorylation of a fluorescently tagged peptide 5-FAM-QSPKKG-CONH2 (PerkinElmer, FL Peptide 18) which induced a difference in capillary electrophoresis mobility. The peptide substrate and product were measured, and the conversion ratio was used to determine the inhibition (as % activity and IC50 values) of CDK2/Cyclin E1. Reactions contained 50 mM HEPES pH 7.5, 10 mM MgCl2, 1 mM EDTA, 2 mM DTT, 0.01% Brij35, 0.5 mg/mL BSA, 0.1% DMSO, 2.5 nM CDK2/Cyclin E1, 100 μM ATP, and 1.5 μM fluorescent peptide substrate.
Dose titrations of inhibitors in 100% DMSO were combined with 3.25 nM CDK2/Cyclin E1 and 130 μM of ATP in reaction buffer. The mixtures were incubated for 30 minutes before the addition of fluorescent peptide substrate to initiate the kinase reaction. The final conditions were 2.5 nM CDK2/Cyclin E1, 100 μM ATP, and 1.5 μM fluorescent peptide. The reactions were stopped after 100 minutes with the addition of EDTA (400 mM final EDTA concentration). The stopped reactions were analyzed on a Caliper LabChip® EZ Reader II. The conversion ratios were normalized to yield % activity, plotted against compound concentration, and fit to a four-parameter equation to determine the IC50 for each compound.

Work on `C[C@@H](OCC1CCCCC1)C(NC(=O)[C@@H]1CN(C(=O)c2cncs2)CC12CN(C(=O)[C@H]1CC1(C)C)C2)c1nnco1` (stereo in doubt) [I-415, (S)—N-((1S,2R)-2-(cyclohexylmethoxy)-1-(1,3,4-oxadiazol-2-yl)propyl)-2-((S)-2,2-dimethylcyclopropane-1-carbonyl)-6-(thiazole-5-carbonyl)-2,6-diazaspiro[3.4]octane-8-carboxamide] yielded an IC50 of 10 to 100 nM.
`C[C@@H](OCc1ccccc1)[C@H](NC(=O)C1CN(C(=O)c2cnn(Cc3ccccc3)c2)CC12CN(C(=O)[C@H]1CC1(C)C)C2)C(=O)O` (stereo partly drawn) [I-9, (2S,3R)-2-(6-(1-benzyl-1H-pyrazole-4-carbonyl)-2-((S)-2,2-dimethylcyclopropanecarbonyl)-2,6-diazaspiro[3.4]octane-8-carboxamido)-3-(benzyloxy)butanoic acid] was tested, and the IC50 was 100 to 1000 nM.
In the case of `CNC(=O)[C@@H](NC(=O)C1CN(C(=O)c2cnn(Cc3cccnc3)c2)CC12CN(C(=O)C1CC1(C)C)C2)[C@@H](C)OCc1ccccc1` (some centres unmarked) [I-15], the IC50 is reported as 100 to 1000 nM.
In the case of `CNC(=O)[C@@H](NC(=O)[C@@H]1CN(Cc2cnn(Cc3ccccc3)c2)CC12CN(C(=O)[C@H]1CC1(C)C)C2)[C@@H](C)OCc1ccccc1` [I-16A], the IC50 is reported as > 10000 nM.
`CNC(=O)[C@@H](NC(=O)[C@H]1CN(Cc2cnn(Cc3ccccc3)c2)CC12CN(C(=O)[C@H]1CC1(C)C)C2)[C@@H](C)OCc1ccccc1` [I-16B] was tested, and the IC50 was > 10000 nM.
`CNC(=O)[C@@H](NC(=O)[C@H]1CN(C(=O)c2cnn(CC3CCN(C(C)=O)CC3)c2)CC12CN(C(=O)[C@H]1CC1(C)C)C2)[C@@H](C)OCc1ccccc1` [I-17B] was tested, and the IC50 was > 10000 nM.
Compound `[2H]C([2H])([2H])NC(=O)C(NC(=O)[C@@H]1CN(C(=O)c2cncs2)CC12CN(C(=O)[C@H]1CC1(C)C)C2)c1cccc(N2CCOCC2)n1` (some centres unmarked) [I-18] has an IC50 of 1000 to 10000 nM.
In the case of `CNC(=O)[C@@H](NC(=O)[C@@H]1CN(C(=O)c2cnn(CC3CCNCC3)c2)CC12CN(C(=O)[C@H]1CC1(C)C)C2)[C@@H](C)OCc1ccccc1` [I-19A], the IC50 is reported as 100 to 1000 nM.
For `CNC(=O)[C@@H](NC(=O)[C@H]1CN(C(=O)c2cnn(CC3CCNCC3)c2)CC12CN(C(=O)[C@H]1CC1(C)C)C2)[C@@H](C)OCc1ccccc1` [I-19B], the IC50 was > 10000 nM.
`C[C@@H](OCc1ccccc1)[C@H](NC(=O)C1CN(C(=O)c2cnn(Cc3ccccc3)c2)CC12CN(C(=O)[C@H]1CC1(C)C)C2)C(=O)NCC#CCO` (some centres unmarked) [I-20] showed an IC50 of 10 to 100 nM.
Compound `C[C@@H](OCc1ccccc1)C(NC(=O)C1CN(C(=O)c2cnn(Cc3ccccc3)c2)CC12CN(C(=O)[C@H]1CC1(C)C)C2)C(=O)NCCOCCOCCO` (some centres unmarked) [I-21] has an IC50 of 10 to 100 nM.
`C[C@@H]1C[C@H](C)CN(C(=O)[C@@H](NC(=O)C2CN(C(=O)c3cnn(Cc4ccccc4)c3)CC23CN(C(=O)[C@H]2CC2(C)C)C3)[C@@H](C)OCc2ccccc2)C1` (some centres unmarked) [I-22] was tested, and the IC50 was 10 to 100 nM.
In the case of `CNC(=O)[C@@H](NC(=O)[C@@H]1CN(C(=O)c2cnn(CC3CCN(C)CC3)c2)CC12CN(C(=O)[C@H]1CC1(C)C)C2)[C@@H](C)OCc1ccccc1` [I-23A], the IC50 is reported as 1000 to 10000 nM.
With `CNC(=O)[C@@H](NC(=O)[C@H]1CN(C(=O)c2cnn(CC3CCN(C)CC3)c2)CC12CN(C(=O)[C@H]1CC1(C)C)C2)[C@@H](C)OCc1ccccc1` [I-23B] the IC50 was > 10000 nM.
`CNC(=O)[C@@H](NC(=O)[C@@H]1CN(C(=O)c2cncs2)CC12CN(C(=O)[C@H]1CC1(C)C)C2)[C@@H](C)OCc1ccccc1` [I-24A, (S)—N-((2S,3R)-3-(benzyloxy)-1-(methylamino)-1-oxobutan-2-yl)-2-((S)-2,2-dimethylcyclopropane-1-carbonyl)-6-(thiazole-5-carbonyl)-2,6-diazaspiro[3.4]octane-8-carboxamide] gave an IC50 of 100 to 1000 nM.
`CNC(=O)[C@@H](NC(=O)[C@H]1CN(C(=O)c2cncs2)CC12CN(C(=O)[C@H]1CC1(C)C)C2)[C@@H](C)OCc1ccccc1` [I-24B] was tested, and the IC50 was > 10000 nM.
In the case of `CNC(=O)[C@@H](NC(=O)[C@@H]1CN(C(=O)c2cnn(Cc3ccccc3)c2)CC12CN(C(=O)Cc1ccccc1)C2)[C@@H](C)OCc1ccccc1` [I-25A, (S)-6-(1-benzyl-1H-pyrazole-4-carbonyl)-N-((2S,3R)-3-(benzyloxy)-1-(methylamino)-1-oxobutan-2-yl)-2-(2-phenylacetyl)-2,6-diazaspiro[3.4]octane-8-carboxamide], the IC50 is reported as > 10000 nM.
With `CNC(=O)[C@@H](NC(=O)[C@H]1CN(C(=O)c2cnn(Cc3ccccc3)c2)CC12CN(C(=O)Cc1ccccc1)C2)[C@@H](C)OCc1ccccc1` [I-25B] the IC50 was > 10000 nM.
Work on `CNC(=O)[C@@H](NC(=O)[C@@H]1CN(C(=O)c2cnn(Cc3ccccc3)c2)CC12CN(C(=O)c1ccccc1)C2)[C@@H](C)OCc1ccccc1` [I-26A] yielded an IC50 of 1000 to 10000 nM.
`CNC(=O)[C@@H](NC(=O)[C@H]1CN(C(=O)c2cnn(Cc3ccccc3)c2)CC12CN(C(=O)c1ccccc1)C2)[C@@H](C)OCc1ccccc1` [I-26B] was tested, and the IC50 was > 10000 nM.
With `CNC(=O)[C@@H](NC(=O)[C@@H]1CN(C(=O)c2cnn(Cc3ccccc3)c2)CC12CN(C(=O)CC1CCC1)C2)[C@@H](C)OCc1ccccc1` [I-27A] the IC50 was 1000 to 10000 nM.
For `CNC(=O)[C@@H](NC(=O)[C@H]1CN(C(=O)c2cnn(Cc3ccccc3)c2)CC12CN(C(=O)CC1CCC1)C2)[C@@H](C)OCc1ccccc1` [I-27B], the IC50 was > 10000 nM.
`C[C@@H](OCc1ccccc1)[C@H](NC(=O)C1CN(C(=O)c2cnn(Cc3ccccc3)c2)CC12CN(C(=O)[C@H]1CC1(C)C)C2)C(=O)NCC#CCN` (some centres unmarked) [I-28] gave an IC50 of 100 to 1000 nM.
`C[C@@H](OCc1ccccc1)[C@H](NC(=O)C1CN(C(=O)c2cnn(Cc3ccccc3)c2)CC12CN(C(=O)[C@H]1CC1(C)C)C2)C(=O)NCCC(=O)O` (some centres unmarked) [I-29] showed an IC50 of 100 to 1000 nM.
`C[C@@H](OCc1ccccc1)[C@H](NC(=O)C1CN(C(=O)c2cnn(Cc3ccccc3)c2)CC12CN(C(=O)[C@H]1CC1(C)C)C2)C(=O)NCCO` (some centres unmarked) [I-30] showed an IC50 of 10 to 100 nM.
Compound `C[C@@H](OCc1ccccc1)[C@H](NC(=O)C1CN(C(=O)c2cnn(Cc3ccccc3)c2)CC12CN(C(=O)[C@H]1CC1(C)C)C2)C(=O)NCCN` (some centres unmarked) [I-31] has an IC50 of 100 to 1000 nM.
Compound `C[C@@H](OCc1ccccc1)[C@H](NC(=O)C1CN(C(=O)c2cnn(Cc3ccccc3)c2)CC12CN(C(=O)[C@H]1CC1(C)C)C2)C(=O)N1CCNCC1` (some centres unmarked) [I-32] has an IC50 of 10 to 100 nM.
`CNC(=O)[C@@H](NC(=O)[C@@H]1CN(C(=O)c2cnn(C)c2)CC12CN(C(=O)[C@H]1CC1(C)C)C2)[C@@H](C)OCc1ccccc1` [I-33A] was tested, and the IC50 was 100 to 1000 nM.
For `CNC(=O)[C@@H](NC(=O)[C@H]1CN(C(=O)c2cnn(C)c2)CC12CN(C(=O)[C@H]1CC1(C)C)C2)[C@@H](C)OCc1ccccc1` [I-33B], the IC50 was > 10000 nM.
In the case of `Cc1ccc(CNC(=O)[C@@H]2CN(C(=O)c3cnn(Cc4ccncc4F)c3)CC23CN(C(=O)[C@H]2CC2(C)C)C3)nn1` [I-35], the IC50 is reported as > 10000 nM.
`CNC(=O)[C@@H](NC(=O)[C@@H]1CN(C(=O)C2CCOCC2)CC12CN(C(=O)[C@H]1CC1(C)C)C2)[C@@H](C)OCc1ccccc1` [I-38A] was tested, and the IC50 was > 10000 nM.
In the case of `CNC(=O)[C@@H](NC(=O)[C@H]1CN(C(=O)C2CCOCC2)CC12CN(C(=O)[C@H]1CC1(C)C)C2)[C@@H](C)OCc1ccccc1` [I-38B], the IC50 is reported as > 10000 nM.
In the case of `CNC(=O)[C@@H](NC(=O)[C@H]1CN(C(=O)c2cnco2)CC12CN(C(=O)[C@H]1CC1(C)C)C2)[C@@H](C)OCc1ccccc1` [I-39B], the IC50 is reported as > 10000 nM.
In the case of `CNC(=O)[C@@H](NC(=O)[C@@H]1CN(Cc2ccccn2)CC12CN(C(=O)[C@H]1CC1(C)C)C2)[C@@H](C)OCc1ccccc1` [I-40A], the IC50 is reported as > 10000 nM.
In the case of `CNC(=O)[C@@H](NC(=O)[C@H]1CN(Cc2ccccn2)CC12CN(C(=O)[C@H]1CC1(C)C)C2)[C@@H](C)OCc1ccccc1` [I-40B], the IC50 is reported as > 10000 nM.
In the case of `CNC(=O)[C@@H](NC(=O)[C@@H]1CN(C(=O)c2cn[nH]c2)CC12CN(C(=O)CC1CC1)C2)[C@@H](C)OCc1ccccc1` [I-41A, (S)—N-((2S,3R)-3-(benzyloxy)-1-(methylamino)-1-oxobutan-2-yl)-2-(2-cyclopropylacetyl)-6-(1H-pyrazole-4-carbonyl)-2,6-diazaspiro[3.4]octane-8-carboxamide], the IC50 is reported as > 10000 nM.
`CNC(=O)[C@@H](NC(=O)[C@H]1CN(C(=O)c2cn[nH]c2)CC12CN(C(=O)CC1CC1)C2)[C@@H](C)OCc1ccccc1` [I-41B] was tested, and the IC50 was > 10000 nM.
`CNC(=O)[C@@H](NC(=O)[C@@H]1CN(C(=O)c2cccnc2)CC12CN(C(=O)[C@H]1CC1(C)C)C2)[C@@H](C)OCc1ccccc1` [I-42A] showed an IC50 of 1000 to 10000 nM.
In the case of `CNC(=O)[C@@H](NC(=O)[C@H]1CN(C(=O)c2cccnc2)CC12CN(C(=O)[C@H]1CC1(C)C)C2)[C@@H](C)OCc1ccccc1` [I-42B], the IC50 is reported as > 10000 nM.
`CNC(=O)[C@@H](NC(=O)[C@@H]1CN(C(=O)c2cnn(CC(F)(F)F)c2)CC12CN(C(=O)CC1CC1)C2)[C@@H](C)OCc1ccccc1` [I-43A] was tested, and the IC50 was > 10000 nM.
In the case of `CNC(=O)[C@@H](NC(=O)[C@H]1CN(C(=O)c2cnn(CC(F)(F)F)c2)CC12CN(C(=O)CC1CC1)C2)[C@@H](C)OCc1ccccc1` [I-43B], the IC50 is reported as > 10000 nM.
`CNC(=O)[C@@H](NC(=O)[C@@H]1CN(C(=O)c2cnc[nH]2)CC12CN(C(=O)[C@H]1CC1(C)C)C2)[C@@H](C)OCc1ccccc1` [I-44A] was tested, and the IC50 was > 10000 nM.
In the case of `CNC(=O)[C@@H](NC(=O)[C@H]1CN(C(=O)c2cnc[nH]2)CC12CN(C(=O)[C@H]1CC1(C)C)C2)[C@@H](C)OCc1ccccc1` [I-44B], the IC50 is reported as > 10000 nM.
With `CNC(=O)[C@@H](NC(=O)[C@@H]1CN(C(=O)c2ccccn2)CC12CN(C(=O)[C@H]1CC1(C)C)C2)[C@@H](C)OCc1ccccc1` [I-45A] the IC50 was > 10000 nM.
